In patent US9884063B2, “Amido-substituted azole compounds” (Bayer Pharma Aktiengesellschaft, priority 2014, dated 2018) one finds IC50 data, which are given here for 23 compounds.

Each structure is given as a SMILES string. Bounds are passed on as bounds.

As usually defined, the IC50 is the concentration that gives 50% inhibition. Read a high IC50 as weaker potency in that assay.

The target in this assay is T1, TNKS2 (Homo sapiens, UniProt Q9H2K2).
T1 sequence (Q9H2K2 1-1166): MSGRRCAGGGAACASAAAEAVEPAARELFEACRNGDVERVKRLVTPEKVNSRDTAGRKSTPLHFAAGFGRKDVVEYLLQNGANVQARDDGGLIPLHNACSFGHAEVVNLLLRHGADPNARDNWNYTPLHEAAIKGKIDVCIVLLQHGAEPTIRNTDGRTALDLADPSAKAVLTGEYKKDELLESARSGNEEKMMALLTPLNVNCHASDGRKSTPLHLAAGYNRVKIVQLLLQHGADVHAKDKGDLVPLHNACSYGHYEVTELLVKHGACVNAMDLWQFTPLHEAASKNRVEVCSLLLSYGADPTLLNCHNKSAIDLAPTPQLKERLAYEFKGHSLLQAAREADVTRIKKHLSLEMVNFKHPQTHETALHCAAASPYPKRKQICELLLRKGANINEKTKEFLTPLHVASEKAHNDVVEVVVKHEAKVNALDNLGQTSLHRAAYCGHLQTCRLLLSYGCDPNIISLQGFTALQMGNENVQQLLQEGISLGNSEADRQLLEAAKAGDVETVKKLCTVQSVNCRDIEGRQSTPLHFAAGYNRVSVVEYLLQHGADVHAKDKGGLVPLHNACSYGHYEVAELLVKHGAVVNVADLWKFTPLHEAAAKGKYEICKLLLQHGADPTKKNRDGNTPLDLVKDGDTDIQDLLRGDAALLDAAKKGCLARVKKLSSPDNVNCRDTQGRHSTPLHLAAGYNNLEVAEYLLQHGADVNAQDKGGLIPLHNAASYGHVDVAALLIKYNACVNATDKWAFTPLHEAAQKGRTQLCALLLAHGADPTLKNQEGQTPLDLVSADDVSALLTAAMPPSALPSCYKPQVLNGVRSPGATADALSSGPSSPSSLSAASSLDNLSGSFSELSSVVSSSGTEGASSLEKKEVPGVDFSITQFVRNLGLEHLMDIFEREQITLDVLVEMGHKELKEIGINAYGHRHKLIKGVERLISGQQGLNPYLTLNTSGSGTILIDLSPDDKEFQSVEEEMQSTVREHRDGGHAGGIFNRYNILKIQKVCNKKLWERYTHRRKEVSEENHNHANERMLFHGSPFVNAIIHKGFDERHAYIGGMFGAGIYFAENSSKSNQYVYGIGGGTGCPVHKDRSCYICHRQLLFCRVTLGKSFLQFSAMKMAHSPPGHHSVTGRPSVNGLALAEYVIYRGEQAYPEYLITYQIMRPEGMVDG
Put plainly: Modified TNKS2 Assay 2 (auto-parsylation, [3H]-NAD+ SPA). In kind it is biochemical. The note with it: 6 nM TNKS2, 96 well. Here is the method: The potency of selected compounds according to the invention was assessed applying an modified in vitro inhibition assay. Here, the TNKS2 catalyzed NAD^+-dependent ribosylation of the enzyme itself (auto-parsylation) was detected using [^3H]-NAD^+ as substrate and applying the scintillation proximity assay (SPA) method to detect tritium-labeled, parsylated TNKS2. The intensity of the readout signal is proportional to the incorporated [^3H]-NAD^+. Inhibition of TNKS2 leads to a decreased incorporation of [^3H]-NAD^+ and consequently to a lower readout signal intensity. The concentration of a test compound which inhibits the enzyme activity by 50% (corresponds to half of the normed readout signal intensity) is reported as IC50.
The assay was conducted in a 96 well MTP format with the identical TNKS2 enzyme sample and NAD^+ sample as in the histone ribosylation assay with the following modifications: TNKS2 enzyme sample was diluted with a modified assay buffer (50 mM MES pH 7.0, 1 mM DTT, 0.01% Triton X-100) to a final concentration of 6 nM TNKS2 and 10×NAD^+ solution was diluted with the modified assay buffer (s. above) to a final 0.445×NAD^+ solution doped with 100 Bq/ul [^3H]-NAD^+ [Catalog #NET443H050UC, Perkin Elmer, Waltham, Mass., USA]. Substrate solution (10 ul) was incubated with different test compound concentrations (2.5 ul in 10% DMSO in modified assay buffer) or control (2.5 ul 10% DMSO in modified assay buffer only) and enzyme (10 ul) over night at room temperature. Incorporated tritium was measured after addition of 50 ul SPA beads (1 mg/ml) [Catalog #RPNQ0095 20 mg/ml, Perkin Elmer, Waltham, Mass., USA; diluted 1:10 with Dulbecco's phosphate buffered saline, PBS Catalog #D8537, Sigma-Aldrich, Steinheim, Germany] and detection of the photon emission with a beta count plate reader [Wallac MicroBeta®, Perkin Elmer, Waltham, Mass., USA].
For the compound `CNC(=O)c1nc[nH]c1C(=O)Nc1ccc(NC(=O)c2c(F)cc(F)cc2Cl)cc1` [Example 118, N^5-{4-[(2-chloro-4,6-difluorobenzoyl)amino]phenyl}-N^4-methyl-1H-imidazole-4,5-dicarboxamide], 140 nM corresponded to half-maximal inhibition (IC50).
With `O=C(NCCN1CCCCC1)c1nc[nH]c1C(=O)Nc1ccc(NC(=O)c2c(F)cc(F)cc2Cl)cc1` [Example 119, N^5-{4-[(2-chloro-4,6-difluorobenzoyl)amino]phenyl}-N^4-[2-(piperidin-1-yl)ethyl]-1H-imidazole-4,5-dicarboxamide] the figure was 5 nM.
Under `NC(=O)c1nc[nH]c1C(=O)Nc1ccc(NC(=O)c2ccc(F)cc2Cl)cc1` [Example 121] stands 70 nM; under `CNC(=O)c1nc[nH]c1C(=O)Nc1ccc(NC(=O)c2ccc(O)cc2Cl)cc1` [Example 122, N^5-{4-[(2-chloro-4-hydroxybenzoyl)amino]phenyl}-N^4-methyl-1H-imidazole-4,5-dicarboxamide], 530 nM; under `CNC(=O)c1nc[nH]c1C(=O)Nc1ccc(NC(=O)c2cc(OCCN3CCN(C)CC3)ccc2Cl)cc1` [Example 124, N^5-[4-({2-chloro-5-[2-(4-methylpiperazin-1-yl)ethoxy]benzoyl}amino)phenyl]-N^4-methyl-1H-imidazole-4,5-dicarboxamide], greater than 10000 nM.
Under `CNC(=O)c1nc[nH]c1C(=O)Nc1ccc(NC(=O)c2cc(OCCN3CCCCC3)ccc2Cl)cc1` [Example 125, N^5-[4-({2-chloro-5-[2-(piperidin-1-yl)ethoxy]benzoyl}amino)phenyl]-N^4-methyl-1H-imidazole-4,5-dicarboxamide] stands greater than 10000 nM; under `CC1CCN(CCNC(=O)c2nc[nH]c2C(=O)Nc2ccc(NC(=O)c3ccc(F)cc3Cl)cc2)CC1` [Example 126, N^5-{4-[(2-chloro-4-fluorobenzoyl)amino]phenyl}-N^4-[2-(4-methylpiperidin-1-yl)ethyl]-1H-imidazole-4,5-dicarboxamide], 7 nM; under `COCCNC(=O)c1[nH]cnc1C(=O)Nc1ccc(NC(=O)c2ccc(F)cc2Cl)cc1` [Example 130, N^4-{4-[(2-chloro-4-fluorobenzoyl)amino]phenyl}-N^5-(2-methoxyethyl)-1H-imidazole-4,5-dicarboxamide], 70 nM.
Turning to `O=C(Nc1ccc(NC(=O)c2nc[nH]c2C(=O)NC2CC2)cc1)c1ccc(F)cc1` [Example 131, N^5-cyclopropyl-N^4-{4-[(4-fluorobenzoyl)amino]phenyl}-1H-imidazole-4,5-dicarboxamide], the IC50 was greater than 10000 nM.
Take `CC(C)CNC(=O)c1[nH]cnc1C(=O)Nc1ccc(NC(=O)c2ccc(F)cc2Cl)cc1` [Example 147, N^4-{4-[(2-chloro-4-fluorobenzoyl)amino]phenyl}-N^5-isobutyl-1H-imidazole-4,5-dicarboxamide]: the midpoint of inhibition, the IC50, lay at 110 nM. In other words, the sub-micromolar range.
Under `CC(C)(C)CNC(=O)c1[nH]cnc1C(=O)Nc1ccc(NC(=O)c2ccccc2Cl)cc1` [Example 148, N^4-{4-[(2-chlorobenzoyl)amino]phenyl}-N^5-(2,2-dimethylpropyl)-1H-imidazole-4,5-dicarboxamide] stands 1100 nM.
With `CC1CCN(CC(C)(C)NC(=O)c2[nH]cnc2C(=O)Nc2ccc(NC(=O)c3ccc(F)cc3Cl)cc2)CC1` [Example 155, N^4-{4-[(2-chloro-4-fluorobenzoyl)amino]phenyl}-N^5-[2-methyl-1-(4-methylpiperidin-1-yl)propan-2-yl]-1H-imidazole-4,5-dicarboxamide] the figure was 80 nM.
`O=C(Nc1ccc(NC(=O)c2nc[nH]c2C(=O)NC(CO)CO)cc1)c1ccccc1Cl` [Example 157, N^4-{4-[(2-chlorobenzoyl)amino]phenyl}-N^5-(1,3-dihydroxypropan-2-yl)-1H-imidazole-4,5-dicarboxamide] registered an IC50 of 1400 nM.
With `CN1CCN(CCNC(=O)c2[nH]cnc2C(=O)Nc2ccc(NC(=O)c3ccccc3Cl)cc2)CC1` [Example 160, N^4-{4-[(2-chlorobenzoyl)amino]phenyl}-N^5-[2-(4-methylpiperazin-1-yl)ethyl]-1H-imidazole-4,5-dicarboxamide] the figure was 110 nM; with `CC1CCN(CCNC(=O)c2[nH]cnc2C(=O)Nc2ccc(NC(=O)c3ccc(F)cc3)cc2)CC1` [Example 164, N^4-{4-[(4-fluorobenzoyl)amino]phenyl}-N^5-[2-(4-methylpiperidin-1-yl)ethyl]-1H-imidazole-4,5-dicarboxamide], 60 nM.
With `CC(C)(CNC(=O)c1[nH]cnc1C(=O)Nc1ccc(NC(=O)c2ccccc2Cl)cc1)N1CCCCC1` [Example 165, N^4-{4-[(2-chlorobenzoyl)amino]phenyl}-N^5-[2-methyl-2-(piperidin-1-yl)propyl]-1H-imidazole-4,5-dicarboxamide] the figure was 70 nM.
`O=C(Nc1ccc(NC(=O)c2nc[nH]c2C(=O)NCCF)cc1)c1ccccc1Cl` [Example 166, N^4-{4-[(2-chlorobenzoyl)amino]phenyl}-N^5-(2-fluoroethyl)-1H-imidazole-4,5-dicarboxamide] yielded an IC50 of 330 nM. Compared with the last compound, the IC50 is about 4.7-fold higher.
For the compound `CC1CCCCN1CCNC(=O)c1[nH]cnc1C(=O)Nc1ccc(NC(=O)c2ccc(F)cc2)cc1` (centres unmarked) [Example 169, N^4-{4-[(4-fluorobenzoyl)amino]phenyl}-N^5-[2-(2-methylpiperidin-1-yl)ethyl]-1H-imidazole-4,5-dicarboxamide], 180 nM corresponded to half-maximal inhibition (IC50).
With `CC(C)(CN1CCCCC1)NC(=O)c1[nH]cnc1C(=O)Nc1ccc(NC(=O)c2ccccc2Cl)cc1` [Example 171, N^4-{4-[(2-chlorobenzoyl)amino]phenyl}-N^5-[2-methyl-1-(piperidin-1-yl)propan-2-yl]-1H-imidazole-4,5-dicarboxamide] the figure was 340 nM.
With `O=C(Nc1ccc(NC(=O)c2nc[nH]c2C(=O)NCCF)cc1)c1ccc(F)cc1Cl` [Example 173, N^4-{4-[(2-chloro-4-fluorobenzoyl)amino]phenyl}-N^5-(2-fluoroethyl)-1H-imidazole-4,5-dicarboxamide] the figure was 50 nM.
With `O=C(Nc1ccc(NC(=O)c2nc[nH]c2C(=O)NCCN2CCCC2)cc1)c1ccc(F)cc1` [Example 176, N^4-{4-[(4-fluorobenzoyl)amino]phenyl}-N^5-[2-(pyrrolidin-1-yl)ethyl]-1H-imidazole-4,5-dicarboxamide] the figure was 60 nM; with `CC(C)(CN1CCOCC1)NC(=O)c1[nH]cnc1C(=O)Nc1ccc(NC(=O)c2ccc(F)cc2)cc1` [Example 180, N^4-{4-[(4-fluorobenzoyl)amino]phenyl}-N^5-[2-methyl-1-(morpholin-4-yl)propan-2-yl]-1H-imidazole-4,5-dicarboxamide], 6900 nM; with `CC(CNC(=O)c1[nH]cnc1C(=O)Nc1ccc(NC(=O)c2ccccc2Cl)cc1)N1CCCCC1` (centres unmarked) [Example 182, N^4-{4-[(2-chlorobenzoyl)amino]phenyl}-N^5-[2-(piperidin-1-yl)propyl]-1H-imidazole-4,5-dicarboxamide], 10 nM.
